# According to ChEMBL document CHEMBL3407331, “Discovery of AM-7209, a potent and selective 4-amidobenzoic acid inhibitor of the MDM2-p53 interaction” (J Med Chem, 2014):
# pIC50: −log10 of the molar value.
# How the values were obtained:
# [1] = target: T1, CYP3A4 (Homo sapiens, UniProt P08684); test: Time-dependent inhibition of CYP3A4 (unknown origin) assessed as remaining activity at 10 uM after 30 mins; format: ADME; conditions: read-out: Activity
# [2] = test system: SJSA-1; test: cells; conditions: Homo sapiens, SJSA-1, 16 h
# [3] = target: T1, CYP3A4; test: Inhibition of CYP3A4 (unknown origin) at 3 uM; format: ADME
# [4] = target: T2, PXR (NR1I2) (Homo sapiens, UniProt O75469); test: Activation of human PXR at 2 uM relative to control; format: ADME; conditions: read-out: Activity
# T2 sequence (O75469 whole entry): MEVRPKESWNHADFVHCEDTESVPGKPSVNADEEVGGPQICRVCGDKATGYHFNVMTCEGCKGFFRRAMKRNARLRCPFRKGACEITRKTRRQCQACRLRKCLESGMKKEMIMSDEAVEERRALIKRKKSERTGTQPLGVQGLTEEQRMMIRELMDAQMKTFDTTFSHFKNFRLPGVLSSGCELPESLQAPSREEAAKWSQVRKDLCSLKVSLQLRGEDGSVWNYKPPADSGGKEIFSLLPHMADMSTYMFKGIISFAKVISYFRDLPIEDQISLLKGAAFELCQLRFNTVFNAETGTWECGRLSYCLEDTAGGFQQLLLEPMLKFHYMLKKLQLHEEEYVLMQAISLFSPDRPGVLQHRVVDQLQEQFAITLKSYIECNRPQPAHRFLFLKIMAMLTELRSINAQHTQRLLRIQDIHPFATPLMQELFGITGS
# [5] = test system: Hepatocyte; test: cells; conditions: Homo sapiens
# T1 sequence (P08684 whole entry): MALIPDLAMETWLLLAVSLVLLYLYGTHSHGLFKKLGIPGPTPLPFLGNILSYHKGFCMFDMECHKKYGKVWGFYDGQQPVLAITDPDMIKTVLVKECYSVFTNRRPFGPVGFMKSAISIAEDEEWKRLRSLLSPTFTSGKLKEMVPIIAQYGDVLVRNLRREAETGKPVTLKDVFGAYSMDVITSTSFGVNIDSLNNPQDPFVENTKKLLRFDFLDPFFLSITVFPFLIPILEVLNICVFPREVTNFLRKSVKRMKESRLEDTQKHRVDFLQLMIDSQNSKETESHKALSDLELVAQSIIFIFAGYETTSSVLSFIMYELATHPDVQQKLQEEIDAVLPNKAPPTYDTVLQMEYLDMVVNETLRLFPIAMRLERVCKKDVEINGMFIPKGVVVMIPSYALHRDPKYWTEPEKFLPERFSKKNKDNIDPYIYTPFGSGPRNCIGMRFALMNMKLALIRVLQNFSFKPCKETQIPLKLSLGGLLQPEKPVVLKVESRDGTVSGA
smiles,measurement,setting,value
COc1cc(NC(=O)C[C@@]2(C)C[C@H](c3cccc(Cl)c3)[C@@H](c3ccc(Cl)cc3)N([C@H](CS(=O)(=O)C(C)(C)C)C3CC3)C2=O)ccc1C(=O)O,"activity at 0.5 h, 10 µM",[1],85%
same,pIC50,[2],8.72
same,inhibition at 3 µM,[3],14%
same,activity at 2 µM,[4],14%
CC(C)(C)S(=O)(=O)C[C@H](C1CC1)N1C(=O)[C@@](C)(CC(=O)Nc2ccccc2C(=O)O)C[C@H](c2cccc(Cl)c2)[C@H]1c1ccc(Cl)cc1,pIC50,[2],7.35
CC(C)(C)S(=O)(=O)C[C@H](C1CC1)N1C(=O)[C@@](C)(CC(=O)NC23CCC(C(=O)O)(CC2)CC3)C[C@H](c2cccc(Cl)c2)[C@H]1c1ccc(Cl)cc1,"activity at 0.5 h, 10 µM",[1],75%
same,pIC50,[2],8.23
same,inhibition at 3 µM,[3],< 10%
same,activity at 2 µM,[4],0%
CC(C)(C)S(=O)(=O)C[C@H](C1CC1)N1C(=O)[C@@](C)(CC(=O)O)C[C@H](c2cccc(Cl)c2)[C@H]1c1ccc(Cl)c(F)c1,CLint,[5],26 µL/min/10⁶ cells
CC(C)(C)S(=O)(=O)C[C@H](C1CC1)N1C(=O)[C@@](C)(CC(=O)Nc2ccc(C#N)cc2)C[C@H](c2cccc(Cl)c2)[C@H]1c1ccc(Cl)cc1,pIC50,[2],6.86
COc1cc(NC(=O)C[C@@]2(C)C[C@H](c3cccc(Cl)c3F)[C@@H](c3ccc(Cl)cc3)N([C@H](CS(=O)(=O)C(C)(C)C)C3CC3)C2=O)ccc1C(=O)O,"activity at 0.5 h, 10 µM",[1],72%
same,inhibition at 3 µM,[3],14%
same,activity at 2 µM,[4],0%
COc1cc(C(=O)O)ccc1NC(=O)C[C@@]1(C)C[C@H](c2cccc(Cl)c2)[C@@H](c2ccc(Cl)cc2)N([C@H](CS(=O)(=O)C(C)(C)C)C2CC2)C1=O,pIC50,[2],8.16
CC(C)(C)S(=O)(=O)C[C@H](C1CC1)N1C(=O)[C@@](C)(CC(=O)N[C@H]2CC[C@H](C(=O)O)CC2)C[C@H](c2cccc(Cl)c2)[C@H]1c1ccc(Cl)cc1,pIC50,[2],8.12
CC(C)(C)S(=O)(=O)C[C@H](C1CC1)N1C(=O)[C@@](C)(CC(=O)Nc2ccc(CC(=O)O)cc2)C[C@H](c2cccc(Cl)c2)[C@H]1c1ccc(Cl)cc1,pIC50,[2],8.57
COc1cc(NC(=O)C[C@@]2(C)C[C@H](c3cccc(Cl)c3)[C@@H](c3ccc(Cl)cc3)N([C@H](CS(=O)(=O)C(C)(C)C)C3CC3)C2=O)ccc1C(N)=O,pIC50,[2],7.82
CC(C)(C)S(=O)(=O)C[C@H](C1CC1)N1C(=O)[C@@](C)(CC(=O)N[C@H]2C[C@H](C(=O)O)C2)C[C@H](c2cccc(Cl)c2)[C@H]1c1ccc(Cl)cc1,pIC50,[2],7.87
